Measured values reported in patent US20240261474A1, “BIODEGRADABLE TISSUE SCAFFOLD WITH SECONDARY MATRIX TO HOST WEAKLY ADHERENT CELLS” (THE U.S.A., as represented by the Secretary, Department of …, priority 2021, published 2024).
Entries after “also recorded” stand apart in the source; their conditions may differ.

Assays:
Assay type in all cases: cell-based, human
iPSC-RPE [1] = experiment: Brightfield imaging of RPE pigmentation; settings: compared to DMSO-treated iPSC-RPE, AGN 193109 0.2 μM, endo-IWR-1 4 uM
Experimental: (§1) Brightfield imaging was used to determine RPE pigmentation defects, while hematoxylin and eosin (H&E) staining was valuable to inspect gross morphologic alterations of the monolayer. A section of transwell membrane was cut and mounted on a glass slide for brightfield imaging. Pigmentation levels were preserved after ENDO-1-IWR and AGN 193109 treatments as compared to DMSO-treated iPSC-RPE.
(§2) AGN 193109 was used at 0.2 μM and endo-IWR-1 at 4 uM. Both drugs were dissolved in DMSO, so that the final concentration of DMSO was not more than 0.1%. The final concentration of DMSO control was 0.1%. The compounds were added in RPE maturation medium until cells were mature. Gross cell morphology was also analyzed (FIGS. 20B, 20D, and 20F, left image) to detect possible abnormalities. Fine intracellular structures were examined for alterations with transmission electron microscopy (TEM, FIGS. 20B, 20D, and 20F, right image).

iPSC-RPE [2] = experiment: Phenotypic characterization of selected drug treatments (TER, brightfield, H&E, TEM, SEM); settings: for induced RPE phenotype: cell size and apical processes; for effect on iPSC-RPE health: verified by TER, brightfield, H&E and TEM
Source text: Eleven compounds were selected for further phenotypic characterization based on their initial effect in RPE cell size. […] Because the macula is dominated by cones while the periphery is dominated by rods, RPE cells in these two different regions might be enriched in one of the two apical process structures. It was hypothesized that the phenotype of RPE apical processes will serve as an additional discriminatory factor, other than RPE morphometry.
Different techniques were used to study RPE morphologic features.
Starting at D21, iPSC-RPE were treated with the different compounds. At D40 immature RPE were enriched by negative selection, as per differentiation protocol, and seeded on transwells for maturation. iPSC-RPE were treated with the compounds for other 6 weeks until cells were fully mature (FIG. 1 and FIG. 11).

iPSC-RPE [3] = experiment: Hematoxylin and eosin staining, gross morphology of the monolayer; settings: H&E, AGN 193109 0.2 μM, endo-IWR-1 4 uM
Experimental: as §1, §2

iPSC-RPE [4] = experiment: Shape metrics (cell area) of drug-treated fully mature iPSC-RPE on transwells; settings: treated from D21 until fully mature; for iPSC-RPE area: transwells; for iPSC-RPE cell size compared with human RPE populations: reference P1 macular, P3 peripheral
Source text: Segmentation Using Convolutional Network: A Convolutional Neural Network (CNN) algorithm was used to recognize RPE cell borders from images of samples labeled by immunofluorescence. The algorithm generates a binary mask of segmented RPE borders; and this output was manually corrected to provide the “right answer” on which the algorithm would learn. Once trained, the CNN algorithm was fed with images of fluorescently labeled RPE cells and the binary mask images that were generated become the input for the REShAPE software for cell shape analysis (FIG. 3).
Morphometric Analysis Using REShAPE: The binary segmentation produced by the CNN algorithm was transferred to REShAPE for cell shape analysis. REShAPE (Retinal Epithelium Shape and Pigment Evaluator) is a Fiji plugin for image analysis. For every cell in a field of view that has been successfully segmented, REShAPE provide quantification of more than 25 different shape metrics. The raw data was stored in a spreadsheet to allow for statistical analysis. In addition, the software created images of segmented cells for every metric analyzed, where every cell is color-coded according to the raw values (FIG. 4). The color-coded images display the location of the cells analyzed. The shape metrics were analyzed with the software to give measurements of cell dimensions, such as area and perimeter, measurements of elongation, such as length of major and minor axis, and measurements of cell regularity, such as hexagonality score and number of neighbors. The analysis was performed in pixel units or μm, as far as the pixel to μm conversion is provided. The analysis of data and the graphs have been done using R software (“R Core Team (2018). R: A language and environment for statistical computing. R Foundation for Statistical Computing, Vienna, Austria. URL https://www.R-project.org/”). The R packages “plyr” and “ggplot2” have been use for data handling and plotting respectively (Wickham, 2009, 2011). The Dunnett's test, a method for post hoc pairwise multiple comparisons, was used to compute statistical analysis by comparing several treatment groups to control groups. A 95% family-wise confidence level has been used. […] Shapiro-Wilk's test and one-way ANOVA were carried out using the R package “dplyr” (Wickham et al., dplyr: A Grammar of Data Manipulation. Retrieved from https://cran.r-project.org/package=dplyr, 2019), while Q-Q plots were drawn using the R package “ggpubr” (Kassambara, ggpubr: “ggplot2” Based Publication Ready Plots. Retrieved from cran.r-project.org/package=ggpubr, 2020). […]
Subsequently, shape metrics were analyzed to confirm the effect of the drugs on cell areas. […]

acid phosphatase = experiment: Acid phosphatase activity in lysates of treated RPE cells (p-nitrophenyl phosphate); settings: compared with DMSO- or endo-IWR-1-treated cells
Experimental: Acid phosphatase has higher expression in the macula (Boulton et al., Br. J. Opthalm. 78:125-9, doi: 10.1136/bjo.78.2.125, 1994). This enzyme has an important role in photoreceptor outer segment digestion. The acid phosphatase activity was determined in cells treated with DMSO, AGN 193109 or endo-IWR-1. RPE cells were lysed in distilled water to extract the enzyme. The lysates were then incubated with p-nitrophenyl phosphate, a phosphatase substrate that turn yellow when dephosphorylated by acid phosphatase. The color of the solution was measured with a spectrophotometer to estimate the enzyme activity.

iPSC-RPE [5] = experiment: Transmission electron microscopy, fine intracellular structures; settings: TEM, AGN 193109 0.2 μM, endo-IWR-1 4 uM
Experimental: Finally, transmission electron microscopy (TEM) was used to detect fine morphological alterations, whereas scanning electron microscopy (SEM) was essential to study modifications in apical processes structures. […] In DMSO-treated iPSC-RPE we found both types of apical processes, petal and finger-like.
as §2

| pigmentation levels (iPSC-RPE [1]; listed as Endo-IWR-1) | pigmentation levels (iPSC-RPE [1]; listed as endo-IWR-1) | Structure (SMILES) | pigmentation levels (iPSC-RPE [1]) | induced RPE phenotype (iPSC-RPE [2]) | effect on iPSC-RPE health (iPSC-RPE [2]) | gross cell morphology (iPSC-RPE [3]) | iPSC-RPE area (iPSC-RPE [4]) | iPSC-RPE cell size compared with human RPE populations (iPSC-RPE [4]) | acid phosphatase activity (acid phosphatase) | fine intracellular structures (iPSC-RPE [5]) | gross cell morphology (iPSC-RPE [3]; listed as endo-IWR-1) | fine intracellular structures (iPSC-RPE [5]; listed as endo-IWR-1) |
| --- | --- | --- | --- | --- | --- | --- | --- | --- | --- | --- | --- | --- |
| – | – | Cc1ccc(C2=CCC(C)(C)c3ccc(C#Cc4ccc(C(=O)O)cc4)cc32)cc1 [AGN 193109, 4-[2-[5,6-Dihydro-5,5-dimethyl-8-(4-methylphenyl)-2-naphthalenyl]ethynyl]-benzoic acid] | preserved; also recorded: did not alter pigmentation levels | induces a macular RPE phenotype | not disruptive of iPSC-RPE health; also recorded: did not affect the healthy RPE phenotype | no gross morphological alterations were detected; also recorded: nor did they affect gross or fine cell morphology | 161.8±149.7 μm^2 | comparable to the dimension of macular RPE population (P1); also recorded: shifts iPSC-RPE cell sizes toward macular RPE population (P1); also recorded: able to reproduce the cellular size of macular population (P1) and peripheral population (P3) respectively | higher acid phosphatase activity than DMSO- or endo-IWR-1-treated cells; also recorded: higher acid phosphatase activity | no fine intracellular structure defects were identified; also recorded: nor did they affect gross or fine cell morphology | – | – |
| did not alter pigmentation levels | did not alter pigmentation levels | O=C(Nc1cccc2cccnc12)c1ccc(N2C(=O)C3C4C=CC(C4)C3C2=O)cc1 (stereo not drawn) [ENDO-1-IWR, 4-(1,3,3a,4,7,7a-Hexahydro-1,3-dioxo-4,7-methano-2H-isoindol-2-yl)-N-8-quinolinyl-Benzamide] | preserved | induces a peripheral RPE phenotype | not disruptive of iPSC-RPE health; also recorded: did not affect the healthy RPE phenotype | no gross morphological alterations were detected | 251.8±218.4 μm^2 | comparable to cells of peripheral RPE population P3; also recorded: increases cell sizes up to the dimensions of the peripheral RPE population P3; also recorded: able to reproduce the cellular size of macular population (P1) and peripheral population (P3) respectively; also recorded: increases RPE cell size to match human peripheral RPE population P3 | – | no fine intracellular structure defects were identified | nor did they affect gross or fine cell morphology | nor did they affect gross or fine cell morphology |
